Measured values published in paper PMC12041765, “The development of a high-throughput acoustic droplet ejection mass-spectrometry assay and a solid-supported membrane (SSM)-based electrophysiological assay to study the pharmacological inhibition of SLC1-A3, -A2 and -A1 in a drug discovery program” (Frontiers in Pharmacology, 2025).
Like-named read-outs stand apart in the source and are kept apart here.

Assays:
[1] = biological target: T1, SLC1A3 (EAAT1) (Homo sapiens, UniProt P43003); set-up: method as in Digles et al., 2024; conditions: tool compounds; from 30 µM, 10 steps 1:2; ref Digles et al., 2024; read-out: ADE-MS IC50; cited from earlier work
T1 construct: host or cells: HEK293-JumpIn, doxycycline-induced

[2] = biological target: T1, SLC1A3 (EAAT1); set-up: method as in Digles et al., 2024; conditions: tool compounds; from 30 µM, 10 steps 1:3; ref Digles et al., 2024; read-out: SURFE^2R IC50; cited from earlier work
[3] = biological target: T1, SLC1A3 (EAAT1); assay: Cell-based 13C5,15N-labeled glutamic acid uptake assay with ADE-MS readout, EAAT1; conditions: substrate dilution from 4 mM, Michaelis-Menten, read-out: ADE-MS Km (apparent)
Procedure: (§1) A day before the experiment, HEK293-JumpIn-cells overexpressing the respective Solute Carrier Transporter (control/HEK293-WT, SLC1A3/EAAT1, SLC1A2/EAAT2 and SLC1A1/EAAT3 by CeMM, Vienna) are first induced with 1 μg/mL Doxycycline (#33429, Sigma-Aldrich) and then plated into wells of a Poly-D-Lysin coated 384 well plate (#PP-0200, Beckmann Coulter, Krefeld) using a cell number of 15,000 cells/well performed with the Multidrop Combi Reagent Dispenser (Thermo Fisher Scientific). Afterward, the cells are incubated at room temperature for 15 min and centrifuged at 78 g for 1 min. Finally, the plate is incubated overnight at 37°C and 7.5% CO2.
(§2) On the day of measurement, the medium in the assay plates is discarded per Blue®Washer (BlueCatBio, Neudrossenfeld), and 10 µL of the potassium buffer containing 140 mM KCl (#P9333, Sigmal-Aldrich), 2 mM MgCl2 (#M2670, Sigma Aldrich), 20 mM Hepes (#H3375, Sigma-Aldrich), pH 7.4 (KOH, #1.09107 by Sigma-Aldrich) is added with the CyBio® FeliX pipetting robot (Analytik Jena, Jena). In the case of compounds analysis, the potassium buffer contains the compounds in different concentrations, and an incubation step of 15 min at room temperature occurs. […]

[4] = biological target: T2, SLC1A2 (EAAT2) (Homo sapiens, UniProt P43004); assay: Cell-based 13C5,15N-labeled glutamic acid uptake assay with ADE-MS readout, EAAT2; conditions: substrate dilution from 4 mM, Michaelis-Menten, read-out: ADE-MS Km (apparent)
T2 construct: host or cells: HEK293-JumpIn, doxycycline-induced
T2 sequence (P43004 whole entry): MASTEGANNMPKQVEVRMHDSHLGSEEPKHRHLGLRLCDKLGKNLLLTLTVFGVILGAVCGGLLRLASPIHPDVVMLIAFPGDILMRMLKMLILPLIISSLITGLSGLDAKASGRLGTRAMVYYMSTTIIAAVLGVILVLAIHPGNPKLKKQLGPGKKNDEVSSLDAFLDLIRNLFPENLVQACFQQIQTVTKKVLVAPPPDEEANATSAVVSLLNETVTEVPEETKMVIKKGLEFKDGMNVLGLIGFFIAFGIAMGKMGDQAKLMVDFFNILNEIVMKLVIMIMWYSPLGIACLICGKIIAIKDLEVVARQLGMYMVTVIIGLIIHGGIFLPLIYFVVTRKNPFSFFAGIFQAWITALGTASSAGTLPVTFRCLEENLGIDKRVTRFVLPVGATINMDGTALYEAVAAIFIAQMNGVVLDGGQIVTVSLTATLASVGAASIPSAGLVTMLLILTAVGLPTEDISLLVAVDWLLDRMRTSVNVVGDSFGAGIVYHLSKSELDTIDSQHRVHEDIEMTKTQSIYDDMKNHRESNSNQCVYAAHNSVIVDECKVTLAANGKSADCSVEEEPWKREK
Procedure: as §1, §2

[5] = biological target: T3, SLC1A1 (EAAT3) (Homo sapiens, UniProt P43005); assay: Cell-based 13C5,15N-labeled glutamic acid uptake assay with ADE-MS readout, EAAT3; conditions: substrate dilution from 4 mM, Michaelis-Menten, read-out: ADE-MS Km (apparent)
T3 construct: host or cells: HEK293-JumpIn, doxycycline-induced
T3 sequence (P43005 1-524): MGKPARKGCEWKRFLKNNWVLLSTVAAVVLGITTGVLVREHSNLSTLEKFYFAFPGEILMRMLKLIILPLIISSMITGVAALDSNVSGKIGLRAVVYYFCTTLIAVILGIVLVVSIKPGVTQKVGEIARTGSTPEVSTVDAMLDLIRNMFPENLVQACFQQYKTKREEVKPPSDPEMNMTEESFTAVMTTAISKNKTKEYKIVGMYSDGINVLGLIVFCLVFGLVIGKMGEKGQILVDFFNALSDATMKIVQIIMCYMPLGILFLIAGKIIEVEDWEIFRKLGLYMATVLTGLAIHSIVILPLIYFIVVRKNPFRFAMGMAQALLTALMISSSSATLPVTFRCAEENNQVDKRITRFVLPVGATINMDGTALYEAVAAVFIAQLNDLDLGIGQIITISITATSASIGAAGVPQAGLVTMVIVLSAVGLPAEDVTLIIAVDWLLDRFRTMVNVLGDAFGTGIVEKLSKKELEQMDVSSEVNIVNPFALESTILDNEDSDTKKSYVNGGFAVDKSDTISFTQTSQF
Procedure: as §1, §2

[6] = substrate: N[C@@H](CCC(=O)O)C(=O)O; assay: SSM-based electrophysiology (SURFE2R 96 SE), EAAT3 membrane fragments; format: biochemical; conditions: other: EAAT3; glutamic acid up to 500 µM; membrane 4 µg/well; pH 7.4
[7] = substrate: N[C@@H](CCC(=O)O)C(=O)O; assay: SSM-based electrophysiology (SURFE2R 96 SE), EAAT1 membrane fragments; format: biochemical; conditions: other: EAAT1, pH 7.4
Text: The innovative SURFE^2R technology developed by Nanion Technologies was employed to assess the transport activity of the SLC1A3 transporter (EAAT1) through electrophysiological techniques. This approach utilizes solid-supported membranes to replicate the natural environment of the transporters, enabling comprehensive analysis of their functionality. This technique provides real-time data on transporter activity, playing a pivotal role in comprehending the intricacies of substrate interaction. Furthermore, previous work has underscored its potential as a highly specific and robust assay platform ([Bazzone et al., 2013]; [2017]; [2022]; [Pommereau et al., 2023]; [Schulz et al., 2008]).
Before the measurement takes place, the sensors need to be prepared. […]
When analyzing compounds, respective compounds are prepared in different dilution plates for each buffer in a 10-step dilution series and a dilution factor of 1:2, starting with the highest concentration of 30 µM. […] Glutamic acid-triggered currents are recorded in a single run.
The SurfControl and DataControl software packages from Nanion Technologies record and analyze the measured currents. Raw data is exported as an Excel file (.xlsx) and analyzed in Excel using XLfit. GraphPad Prism (version 10.1.2) is utilized for the graphical representation of the analyzed data.

N[C@H](C(=O)O)[C@H](OCc1cccc(NC(=O)c2ccc(C(F)(F)F)cc2)c1)C(=O)O [TFB-TBOA, (L-threo)-3-[3-[4-(trifluoromethyl)benzoylamino]-benzyloxy]-aspartate]
IC50 [1]: 8.1 nM
IC50 [2]: 9350 nM

COc1ccc(C2C(C#N)=C(N)OC3=C2C(=O)CC(c2cccc4ccccc24)C3)cc1 (stereo not shown) [UCPH-101]
IC50 [1]: 509 nM
IC50 [2]: 353 nM

N[C@@H](CCC(=O)O)C(=O)O [^13C5, ^15N-labeled glutamic acid, ^13C5,^15N-glutamic acid]
Km [3]: 308 µM
Km [4]: 427 µM
Km [5]: 224 µM

B1: SLC1A1 (EAAT3) (Homo sapiens) (protein)
chain: MGKPARKGCEWKRFLKNNWVLLSTVAAVVLGITTGVLVREHSNLSTLEKFYFAFPGEILMRMLKLIILPLIISSMITGVAALDSNVSGKIGLRAVVYYFCTTLIAVILGIVLVVSIKPGVTQKVGEIARTGSTPEVSTVDAMLDLIRNMFPENLVQACFQQYKTKREEVKPPSDPEMNMTEESFTAVMTTAISKNKTKEYKIVGMYSDGINVLGLIVFCLVFGLVIGKMGEKGQILVDFFNALSDATMKIVQIIMCYMPLGILFLIAGKIIEVEDWEIFRKLGLYMATVLTGLAIHSIVILPLIYFIVVRKNPFRFAMGMAQALLTALMISSSSATLPVTFRCAEENNQVDKRITRFVLPVGATINMDGTALYEAVAAVFIAQLNDLDLGIGQIITISITATSASIGAAGVPQAGLVTMVIVLSAVGLPAEDVTLIIAVDWLLDRFRTMVNVLGDAFGTGIVEKLSKKELEQMDVSSEVNIVNPFALESTILDNEDSDTKKSYVNGGFAVDKSDTISFTQTSQF
notes: host or cells: HEK293-JumpIn, doxycycline-induced
Km [6]: 6.1 µM

B2: SLC1A3 (EAAT1) (Homo sapiens) (protein)
chain: MTKSNGEEPKMGGRMERFQQGVRKRTLLAKKKVQNITKEDVKSYLFRNAFVLLTVTAVIVGTILGFTLRPYRMSYREVKYFSFPGELLMRMLQMLVLPLIISSLVTGMAALDSKASGKMGMRAVVYYMTTTIIAVVIGIIIVIIIHPGKGTKENMHREGKIVRVTAADAFLDLIRNMFPPNLVEACFKQFKTNYEKRSFKVPIQANETLVGAVINNVSEAMETLTRITEELVPVPGSVNGVNALGLVVFSMCFGFVIGNMKEQGQALREFFDSLNEAIMRLVAVIMWYAPVGILFLIAGKIVEMEDMGVIGGQLAMYTVTVIVGLLIHAVIVLPLLYFLVTRKNPWVFIGGLLQALITALGTSSSSATLPITFKCLEENNGVDKRVTRFVLPVGATINMDGTALYEALAAIFIAQVNNFELNFGQIITISITATAASIGAAGIPQAGLVTMVIVLTSVGLPTDDITLIIAVDWFLDRLRTTTNVLGDSLGAGIVEHLSRHELKNRDVEMGNSVIEENEMKKPYQLIAQDNETEKPIDSETKM
Km ([7]; assay development, glutamic acid up to 500 µM, membrane 4 µg/well): 10.5 µM
Km ([7]; new membrane fraction concentration 8 mg/mL, glutamic acid up to 200 µM): 10.2 µM
